Experimental data reported in PubChem BioAssay (NCI).
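Cells were grown in 96-well plates and exposed to each compound for 48 hours at five concentrations; endpoints were interpolated linearly between bracketing concentrations, or set to the highest concentration if not reached. TGI: total growth inhibition.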

Key:
Experiment in all cases: NCI tumour cell line growth inhibition, 48 h
786-0 renal = test system: 786-0 renal
A549 NSCLC = test system: A549 NSCLC
ACHN renal = test system: ACHN renal
BT-549 breast = test system: BT-549 breast
CAKI-1 renal = test system: CAKI-1 renal
CCRF-CEM leukemia = test system: CCRF-CEM leukemia
COLO 205 colon = test system: COLO 205 colon
DU-145 prostate = test system: DU-145 prostate
EKVX NSCLC = test system: EKVX NSCLC
HCC-2998 colon = test system: HCC-2998 colon
HCT-116 colon = test system: HCT-116 colon
HCT-15 colon = test system: HCT-15 colon
HL-60(TB) leukemia = test system: HL-60(TB) leukemia
HOP-92 NSCLC = test system: HOP-92 NSCLC
HS 578T breast = test system: HS 578T breast
HT29 colon = test system: HT29 colon
K-562 leukemia = test system: K-562 leukemia
KM12 colon = test system: KM12 colon
LOX IMVI melanoma = test system: LOX IMVI melanoma
M14 melanoma = test system: M14 melanoma
MALME-3M melanoma = test system: MALME-3M melanoma
MCF7 breast = test system: MCF7 breast
MDA-MB-231 breast = test system: MDA-MB-231 breast
MDA-MB-435 = test system: MDA-MB-435
MDA-N = test system: MDA-N
MOLT-4 leukemia = test system: MOLT-4 leukemia
NCI-H226 lung = test system: NCI-H226 lung
NCI-H23 lung = test system: NCI-H23 lung
NCI-H460 lung = test system: NCI-H460 lung
NCI-H522 lung = test system: NCI-H522 lung
NCI/ADR-RES ovarian = test system: NCI/ADR-RES ovarian
OVCAR-3 ovarian = test system: OVCAR-3 ovarian
OVCAR-4 ovarian = test system: OVCAR-4 ovarian
OVCAR-5 ovarian = test system: OVCAR-5 ovarian
OVCAR-8 ovarian = test system: OVCAR-8 ovarian
PC-3 prostate = test system: PC-3 prostate
RXF 393 renal = test system: RXF 393 renal
SF-268 CNS = test system: SF-268 CNS
SF-295 CNS = test system: SF-295 CNS
SF-539 CNS = test system: SF-539 CNS
SK-MEL-2 melanoma = test system: SK-MEL-2 melanoma
SK-MEL-28 melanoma = test system: SK-MEL-28 melanoma
SK-MEL-5 melanoma = test system: SK-MEL-5 melanoma
SK-OV-3 ovarian = test system: SK-OV-3 ovarian
SN12C renal = test system: SN12C renal
SNB-19 CNS = test system: SNB-19 CNS
SNB-75 CNS = test system: SNB-75 CNS
SR leukemia = test system: SR leukemia
SW-620 colon = test system: SW-620 colon
T-47D breast = test system: T-47D breast
TK-10 renal = test system: TK-10 renal
U251 CNS = test system: U251 CNS
UACC-257 melanoma = test system: UACC-257 melanoma
UACC-62 melanoma = test system: UACC-62 melanoma
UO-31 renal = test system: UO-31 renal
A498 renal = test system: A498 renal
HOP-62 NSCLC = test system: HOP-62 NSCLC
IGROV1 ovarian = test system: IGROV1 ovarian
RPMI-8226 leukemia = test system: RPMI-8226 leukemia

COC(=O)[C@]1(C)CCC[C@]2(C)[C@@H](CCC(=O)C(C)C)[C@]3(C=O)O[C@@H]3C[C@H]21
TGI (786-0 renal): > 100 µM | TGI (A549 NSCLC): > 100 µM | TGI (ACHN renal): 57.3 µM | TGI (BT-549 breast): 77.3 µM | TGI (CAKI-1 renal): 31.9 µM | TGI (CCRF-CEM leukemia): > 100 µM | TGI (COLO 205 colon): > 100 µM | TGI (DU-145 prostate): > 100 µM | TGI (EKVX NSCLC): > 100 µM | TGI (HCC-2998 colon): > 100 µM | TGI (HCT-116 colon): 57.7 µM | TGI (HCT-15 colon): > 100 µM | TGI (HL-60(TB) leukemia): > 100 µM | TGI (HOP-92 NSCLC): > 100 µM | TGI (HS 578T breast): > 100 µM | TGI (HT29 colon): > 100 µM | TGI (K-562 leukemia): > 100 µM | TGI (KM12 colon): > 100 µM | TGI (LOX IMVI melanoma): 92.3 µM | TGI (M14 melanoma): > 100 µM | TGI (MALME-3M melanoma): > 100 µM | TGI (MCF7 breast): > 100 µM | TGI (MDA-MB-231 breast): > 100 µM | TGI (MDA-MB-435): 99.6 µM | TGI (MDA-N): 75.1 µM | TGI (MOLT-4 leukemia): > 100 µM | TGI (NCI-H226 lung): > 100 µM | TGI (NCI-H23 lung): > 100 µM | TGI (NCI-H460 lung): > 100 µM | TGI (NCI-H522 lung): 46.6 µM | TGI (NCI/ADR-RES ovarian): 90.4 µM | TGI (OVCAR-3 ovarian): > 100 µM | TGI (OVCAR-4 ovarian): 87.3 µM | TGI (OVCAR-5 ovarian): > 100 µM | TGI (OVCAR-8 ovarian): > 100 µM | TGI (PC-3 prostate): > 100 µM | TGI (RXF 393 renal): 51.7 µM | TGI (SF-268 CNS): > 100 µM | TGI (SF-295 CNS): > 100 µM | TGI (SF-539 CNS): > 100 µM | TGI (SK-MEL-2 melanoma): > 100 µM | TGI (SK-MEL-28 melanoma): > 100 µM | TGI (SK-MEL-5 melanoma): > 100 µM | TGI (SK-OV-3 ovarian): > 100 µM | TGI (SN12C renal): > 100 µM | TGI (SNB-19 CNS): > 100 µM | TGI (SNB-75 CNS): 63.9 µM | TGI (SR leukemia): > 100 µM | TGI (SW-620 colon): > 100 µM | TGI (T-47D breast): 95.7 µM | TGI (TK-10 renal): > 100 µM | TGI (U251 CNS): > 100 µM | TGI (UACC-257 melanoma): > 100 µM | TGI (UACC-62 melanoma): > 100 µM | TGI (UO-31 renal): 48.4 µM

O=C(O)CNCCc1ccccc1
TGI (786-0 renal): > 100 µM | TGI (A498 renal): > 100 µM | TGI (A549 NSCLC): > 100 µM | TGI (ACHN renal): > 100 µM | TGI (BT-549 breast): > 100 µM | TGI (CAKI-1 renal): > 100 µM | TGI (CCRF-CEM leukemia): > 100 µM | TGI (COLO 205 colon): > 100 µM | TGI (DU-145 prostate): > 100 µM | TGI (EKVX NSCLC): > 100 µM | TGI (HCT-116 colon): > 100 µM | TGI (HCT-15 colon): > 100 µM | TGI (HL-60(TB) leukemia): > 100 µM | TGI (HOP-62 NSCLC): > 100 µM | TGI (HOP-92 NSCLC): > 100 µM | TGI (HS 578T breast): > 100 µM | TGI (HT29 colon): > 100 µM | TGI (IGROV1 ovarian): > 100 µM | TGI (K-562 leukemia): > 100 µM | TGI (KM12 colon): > 100 µM | TGI (LOX IMVI melanoma): > 100 µM | TGI (M14 melanoma): > 100 µM | TGI (MALME-3M melanoma): > 100 µM | TGI (MCF7 breast): > 100 µM | TGI (MDA-MB-231 breast): > 100 µM | TGI (MDA-MB-435): > 100 µM | TGI (MDA-N): > 100 µM | TGI (NCI-H226 lung): > 100 µM | TGI (NCI-H23 lung): > 100 µM | TGI (NCI-H460 lung): > 100 µM | TGI (NCI-H522 lung): > 100 µM | TGI (NCI/ADR-RES ovarian): > 100 µM | TGI (OVCAR-3 ovarian): > 100 µM | TGI (OVCAR-4 ovarian): > 100 µM | TGI (OVCAR-5 ovarian): > 100 µM | TGI (OVCAR-8 ovarian): > 100 µM | TGI (PC-3 prostate): > 100 µM | TGI (RPMI-8226 leukemia): > 100 µM | TGI (RXF 393 renal): > 100 µM | TGI (SF-268 CNS): > 100 µM | TGI (SF-295 CNS): > 100 µM | TGI (SK-MEL-2 melanoma): > 100 µM | TGI (SK-MEL-28 melanoma): > 100 µM | TGI (SK-MEL-5 melanoma): > 100 µM | TGI (SK-OV-3 ovarian): > 100 µM | TGI (SN12C renal): > 100 µM | TGI (SNB-19 CNS): > 100 µM | TGI (SNB-75 CNS): > 100 µM | TGI (SR leukemia): > 100 µM | TGI (SW-620 colon): > 100 µM | TGI (T-47D breast): > 100 µM | TGI (TK-10 renal): > 100 µM | TGI (U251 CNS): > 100 µM | TGI (UACC-62 melanoma): > 100 µM | TGI (UO-31 renal): > 100 µM
